Reference: article PMC8431557, “Multilevel Approach for the Treatment of Giardiasis by Targeting Arginine Deiminase” (International Journal of Molecular Sciences, 2021)

Key:
[1] = target: T1, GlADI (giardial arginine deiminase) (Giardia duodenalis, UniProt E2RU36); assay: residual activity after […] h preincubation, GlDH-coupled NADH assay; type: biochemical; set-up: gene GL50803_00112103; recombinant in pET28a(+), E. coli Rosetta 2 (DE3) pLysS; N-terminal His6 tag not cleaved; 580 residues; homodimer; 16 Cys per monomer; conditions: covalent (Cys modification); 2 h, pH 8.0, 25 °C
[2] = target: T1, GlADI (giardial arginine deiminase); set-up: gene GL50803_00112103; conditions: 8 mM L-arginine, pH 8.0, 25 °C
[3] = target: T1, GlADI (giardial arginine deiminase); assay: residual activity after timed preincubation, GlDH-coupled NADH assay; slope of k1 vs concentration; type: biochemical; set-up: gene GL50803_00112103; recombinant in pET28a(+), E. coli Rosetta 2 (DE3) pLysS; N-terminal His6 tag not cleaved; 580 residues; homodimer; 16 Cys per monomer; conditions: covalent (Cys modification), second-order inactivation rate constant, pH 8.0, 25 °C

T1 sequence (E2RU36 entry or part of it): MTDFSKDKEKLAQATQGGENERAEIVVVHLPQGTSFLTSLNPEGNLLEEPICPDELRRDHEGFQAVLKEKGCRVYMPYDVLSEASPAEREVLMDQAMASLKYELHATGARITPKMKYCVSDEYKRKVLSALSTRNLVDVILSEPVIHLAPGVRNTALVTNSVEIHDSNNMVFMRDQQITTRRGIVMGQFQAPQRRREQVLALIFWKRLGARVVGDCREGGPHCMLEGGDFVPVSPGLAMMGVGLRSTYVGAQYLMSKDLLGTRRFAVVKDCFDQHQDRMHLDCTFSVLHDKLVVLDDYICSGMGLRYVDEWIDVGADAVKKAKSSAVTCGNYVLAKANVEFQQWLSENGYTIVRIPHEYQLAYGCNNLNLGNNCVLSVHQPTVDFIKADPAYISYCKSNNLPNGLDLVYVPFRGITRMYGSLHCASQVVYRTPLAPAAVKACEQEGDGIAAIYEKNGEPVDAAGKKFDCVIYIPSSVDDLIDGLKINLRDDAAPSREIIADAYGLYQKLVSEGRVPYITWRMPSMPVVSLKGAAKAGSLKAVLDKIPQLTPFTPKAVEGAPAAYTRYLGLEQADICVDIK

| Compound | residual activity (%) [1] | further results |
| --- | --- | --- |
| CC(=C(CCOC(=O)C(C)C)SSC(CCOC(=O)C(C)C)=C(C)N(C=O)Cc1cnc(C)nc1N)N(C=O)Cc1cnc(C)nc1N (stereo in doubt) [sulbutiamine] | all of these drugs were able to inhibit recombinant GlADI in vitro in a dose-dependent manner |  |
| O=C(O)c1cc(SSc2ccc([N+](=O)[O-])c(C(=O)O)c2)ccc1[N+](=O)[O-] [DTNB, dithio-bis-nitrobenzoic acid] | caused inactivation of the enzyme in a dose-dependent manner (Figure 1E,F) |  |
| N=C(N)NCCC[C@H](N)C(=O)O [L-arginine] |  | GlDH-coupled NADH oxidation at 340 nm [2]: monitoring the conversion of L-arginine to citrulline |
| CSS(C)(=O)=O [MMTS, s-methyl methanethiosulfonate] |  | k2 ([3]; 2.5-85 µM): 15.68 ± 0.9 M⁻¹ s⁻¹ |
| COc1ccc2[nH]c([S+]([O-])Cc3ncc(C)c(OC)c3C)nc2c1 (stereo not drawn) [omeprazole] | all of these drugs were able to inhibit recombinant GlADI in vitro in a dose-dependent manner |  |
| COCCCOc1ccnc(C[S+]([O-])c2nc3ccccc3[nH]2)c1C (stereo not drawn) [rabeprazole] |  | k2 ([3]; 5-110 µM): 6.72 ± 0.2 M⁻¹ s⁻¹ |
